Data on 40 compounds can be found in patent publication US10301314B2, “Compounds and methods for the prevention and treatment of tumor metastasis and tumorigenesis” (The United States of America, as represented by the …, priority 2011, dated 2019).

Assay [1] has as its system PC3M reporter cell line stably expressing the PTB-GFP. The assay can be described thus: ATP quantitation assay (ATPLite). It counts as cell-based, human. The conditions noted are these: Homo sapiens, PC-3M, Table 4, PC3M cells, 24 hrs incubation. On the procedure: This follow-up assay was conducted to measure the effect of compounds on cell health by measuring ATP levels (ATPLite™). ATPLite™ is an ATP monitoring system based on firefly (Photinus pyralis) luciferase. The level of ATP in a metabolically active cell is a general marker for its viability. ATP levels are often reduced during necrosis or apoptosis. In this assay, the luciferase enzyme catalyzes the conversion of the added substrate D-luciferin to oxyluciferin and light with ATP. Thus, the emitted light is proportional to the ATP concentration. For this assay, the highly metastatic PC3M reporter cell line stably expressing the PTB-GFP was provided by Professor Sui Huang of Northwestern University. The media and cell culture reagents were purchased from Invitrogen (Carlsbad, Calif.), ATPLite™ came from PerkinElmer.
(In general: In ATP-based viability assays light output follows the ATP content of the culture.)

In assay [2] the test system is PC3M cell line that stably expresses GFP-PTB to mark PNCs. In words: High content assay for PNC detection (reduction of PNC prevalence). It counts as cell-based, human. Conditions: Table 4, PC3M GFP-PTB cells, 16 hrs incubation; for IC50: Homo sapiens, PC-3M. An excerpt:
The quantitative output for this assay is the reduction of PNC prevalence. The PNC can be detected in living cells by the expression of a green fluorescent protein (GFP) tagged to the PNC localized protein, PTB. A PC3M cell line was used that stably expresses GFP-PTB to mark PNCs. This method eliminates the need for immunofluorescent staining.
The IN Cell Analyzer 1000 automated fluorescent imaging system (GE Healthcare, Piscataway, N.J.) was used for automated image acquisition. […] The instrument acquired images of each well in a 1536-well plate with a laser-based autofocus system. To score PNC prevalence in a high-content throughput, the Multi-Target Analysis (MTA) algorithm (GE Healthcare, Investigator v3.5) to identify individual cells and granules (PNCs) within these cells was used. The nucleus was segmented via a region growing method (50 μm^2 minimum area) with light shading and noise removal to allow “touching” nuclei to be separated. Granules in the nucleus (PNCs) were segmented using a multiscale top hat method, which measures granules of 1 to 2 μm in size and used a smart masking method to identify the boundaries of each segmented granule. The algorithm was optimized and validated using positive and negative controls (50 μM camptothecin and DMSO, respectively). In particular, the MTA algorithm allows for the identification of multiple subcellular compartments and organelles (or granules) within those compartments. In this instance, the algorithm's capability to identify objects within the same color channel that only differ in size or fluorescent intensity was utilized. Also, the algorithm allows for building complex hierarchical classification systems, using output measures within the algorithm to filter and define subpopulations. For this particular assay, PNC-positive cells were scored when 1 to 3 PNC granules were detected per nucleus. Cells that contained 0 granules were scored as PNC negative, and cells with >3 granules were assumed to be false positives (very few cells have more than 3 PNCs in one focus plane), and were also scored as PNC negative.

With `COC(Cn1cnc2c(c(-c3ccccc3)c(-c3ccccc3)n2Cc2ccccc2)c1=N)OC`, the IC50 came to 38.3 µM in assay [1] and 5.9 µM in assay [2].
The corresponding values for `N=c1c2c(-c3ccccc3)c(-c3ccccc3)n(CCc3ccccc3)c2ncn1[C@H]1CC[C@H](O)CC1` [Compound 3] are 9.61 µM and 0.047 µM.
The like results for `N=c1c2c(-c3ccccc3)c(-c3ccccc3)n(Cc3ccccc3)c2ncn1CCO` [Compound 4] were, in that order, 76.4 µM and 0.118 µM.
The like results for `N=c1c2c(-c3ccccc3)c(-c3ccccc3)n(CCc3ccccc3)c2ncn1CCO` [Compound 5] were, in that order, 19.2 µM and 0.187 µM.
As to `COc1ccc(Cn2c(-c3ccccc3)c(-c3ccccc3)c3c(=N)n(CCO)cnc32)cc1` [Compound 6], the IC50 in assay [1] turned out to be 48.2 µM; in assay [2], 1.48 µM.
The corresponding values for `N=c1c2c(-c3ccccc3)c(-c3ccccc3)n(Cc3ccco3)c2ncn1CCO` [Compound 7] are 20.4 µM and 0.628 µM.
For `N=c1c2c(-c3ccccc3)c(-c3ccccc3)n(CCc3ccccc3)c2ncn1CCCO` [Compound 9], the values for the IC50 in assay [1] and in assay [2] were 19.2 µM and 0.148 µM, respectively.
The corresponding values for `N=c1c2c(-c3ccccc3)c(-c3ccccc3)n(Cc3ccco3)c2ncn1CCCO` [Compound 11] are 64.6 µM and 3.97 µM.
In assay [1], `N=c1c2c(-c3ccccc3)c(-c3ccccc3)n(Cc3ccccc3)c2ncn1CCCCO` [Compound 12] registered an IC50 of 24.1 µM. Moreover, the “PNC IC50(μM)” value in assay [2] was “inactive”.
With `N=c1c2c(-c3ccccc3)c(-c3ccccc3)n(CCc3ccccc3)c2ncn1CCCCO` [Compound 13], the IC50 in assay [1] came to 15.2 µM; in assay [2] it was 0.235 µM.
Take `COc1ccc(Cn2c(-c3ccccc3)c(-c3ccccc3)c3c(=N)n(CCCCCO)cnc32)cc1` [Compound 14]: the IC50 in assay [1] was found to be 24.1 µM; in assay [2], 1.18 µM.
The corresponding values for `N=c1c2c(-c3ccccc3)c(-c3ccccc3)n(Cc3ccccc3)c2ncn1CCCCCO` [Compound 15] are 24.1 µM and 0.372 µM.
The like results for `N=c1c2c(-c3ccccc3)c(-c3ccccc3)n(CCc3ccccc3)c2ncn1CCCCCO` [Compound 16] were, in that order, 38.3 µM and 0.59 µM.
The like results for `COc1ccc(Cn2c(-c3ccccc3)c(-c3ccccc3)c3c(=N)n(CCCCO)cnc32)cc1` [Compound 17] were, in that order, 30.4 µM and 1.18 µM.
As for `N=c1c2c(-c3ccccc3)c(-c3ccccc3)n(Cc3ccccc3)c2ncn1CCN` [Compound 18], inhibition in assay [1] was half-maximal at 76.4 µM (IC50). In assay [2], the “PNC IC50(μM)” value was “inactive”.
In the case of `CN(C)CCn1cnc2c(c(-c3ccccc3)c(-c3ccccc3)n2Cc2ccccc2)c1=N` [Compound 19], the IC50 in assay [1] was 24.1 µM; in assay [2] it was 0.935 µM.
With `CN(C)CCn1cnc2c(c(-c3ccccc3)c(-c3ccccc3)n2CCc2ccccc2)c1=N` [Compound 20], the IC50 in assay [1] worked out at 96.1 µM; in assay [2], 0.469 µM.
Turning to `CN(C)CCCn1cnc2c(c(-c3ccccc3)c(-c3ccccc3)n2Cc2ccccc2)c1=N` [Compound 21], the IC50 in assay [1] was 24.1 µM; in assay [2], 7.43 µM.
The corresponding values for `CN(C)CCCn1cnc2c(c(-c3ccccc3)c(-c3ccccc3)n2CCc2ccccc2)c1=N` [Compound 22] are 24.1 µM and 7.43 µM.
The corresponding values for `N=c1c2c(-c3ccccc3)c(-c3ccccc3)n(Cc3ccccc3)c2ncn1C1CCN(Cc2ccccc2)CC1` [Compound 23] are 121 µM and 4.69 µM.
The corresponding values for `N=c1c2c(-c3ccccc3)c(-c3ccccc3)n(CCc3ccccc3)c2ncn1C1CCN(Cc2ccccc2)CC1` [Compound 24] are 24.1 µM and 1.87 µM.
With `COCCn1cnc2c(c(-c3ccccc3)c(-c3ccccc3)n2Cc2ccccc2)c1=N` [Compound 25], the IC50 stood at 60.7 µM in assay [1] and 1.87 µM in assay [2].
`COCCn1cnc2c(c(-c3ccccc3)c(-c3ccccc3)n2CCc2ccccc2)c1=N` [Compound 26]: the figures for the IC50 in assay [1] and in assay [2] were 60.7 µM and 3.72 µM, respectively.
The like results for `COCCn1cnc2c(c(-c3ccccc3)c(-c3ccccc3)n2Cc2ccc(OC)cc2)c1=N` [Compound 27] were, in that order, 24.1 µM and 1.18 µM.
The corresponding values for `COC(Cn1cnc2c(c(-c3ccccc3)c(-c3ccccc3)n2CCc2ccccc2)c1=N)OC` [Compound 29] are 27.1 µM and 23.5 µM.
The corresponding values for `COc1ccc(Cn2c(-c3ccccc3)c(-c3ccccc3)c3c(=N)n(CC(OC)OC)cnc32)cc1` [Compound 30] are 24.1 µM and 5.9 µM.
As to `CCOC(CCCn1cnc2c(c(-c3ccccc3)c(-c3ccccc3)n2Cc2ccccc2)c1=N)OCC` [Compound 31], the figures for the IC50 in assay [1] and in assay [2] were 24.1 µM and 2.96 µM, respectively.
`CCOC(CCCn1cnc2c(c(-c3ccccc3)c(-c3ccccc3)n2CCc2ccccc2)c1=N)OCC` [Compound 32]: the IC50 amounted to 24.1 µM in assay [1] and 18.7 µM in assay [2].
The corresponding values for `CCOC(CCCn1cnc2c(c(-c3ccccc3)c(-c3ccccc3)n2Cc2ccc(OC)cc2)c1=N)OCC` [Compound 33] are 48.2 µM and 2.96 µM.
The like results for `CCCCn1cnc2c(c(-c3ccccc3)c(-c3ccccc3)n2Cc2ccco2)c1=N` [Compound 34] were, in that order, 20.4 µM and 1.25 µM.
For the compound `CC(C)CCn1cnc2c(c(-c3ccccc3)c(-c3ccccc3)n2Cc2ccco2)c1=N` [Compound 35], inhibition in assay [1] was half-maximal at 19.9 µM (IC50). Further, the “PNC IC50(μM)” value in assay [2] was “Inactive”.
For `N=c1c2c(-c3ccccc3)c(-c3ccccc3)n(Cc3ccccc3)c2ncn1CCCn1ccnc1` [Compound 36], the IC50 was 25.7 µM in assay [1] and 1.99 µM in assay [2].
The like results for `N=c1c2c(-c3ccccc3)c(-c3ccccc3)n(Cc3ccccc3)c2ncn1CC1CCCO1` (centres unmarked) [Compound 38] were, in that order, 96.1 µM and 0.935 µM.
The corresponding values for `N=c1c2c(-c3ccccc3)c(-c3ccccc3)n(CCc3ccccc3)c2ncn1CC1CCCO1` (centres unmarked) [Compound 39] are 48.2 µM and 4.69 µM.
As for `COc1ccc(Cn2c(-c3ccccc3)c(-c3ccccc3)c3c(=N)n(CC4CCCO4)cnc32)cc1` (centres unmarked) [Compound 40], the results for the IC50 in assay [1] and in assay [2] were 38.3 µM and 5.9 µM, respectively.
Regarding `N=c1c2c(-c3ccccc3)c(-c3ccccc3)n(Cc3ccco3)c2ncn1Cc1ccco1` [Compound 43], the IC50 in assay [1] is 20.4 µM; in assay [2], 9.96 µM.
With `N=c1c2c(-c3ccccc3)c(-c3ccccc3)n(Cc3ccccc3)c2ncn1Cc1ccccc1` [Compound 44], the figures for the IC50 in assay [1] and in assay [2] were 19.9 µM and 15.8 µM, respectively.
For `N=c1c2c(-c3ccccc3)c(-c3ccccc3)n(Cc3ccccc3)c2ncn1Cc1ccc2c(c1)OCO2` [Compound 45], the IC50 in assay [1] was found to be 24.1 µM; in assay [2], 9.35 µM.
The like results for `COc1ccc(CCn2cnc3c(c(-c4ccccc4)c(-c4ccccc4)n3Cc3ccccc3)c2=N)cc1OC` [Compound 46] were, in that order, 24.1 µM and 14.8 µM.
Consider `N=c1c2c(-c3ccccc3)c(-c3ccccc3)n(CCc3ccccc3)c2ncn1[C@H](CO)Cc1ccccc1` [Compound 48], for which the IC50 in assay [1] was 30.4 µM; in assay [2] it was 4.69 µM.

The term IC50 denotes the concentration that inhibits the measured activity by half. Read a low IC50 as greater potency in that assay.
